# According to ChEMBL document CHEMBL1201862, “PubChem BioAssay data set” (2004):
#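 Protocol summary: plate cells (96-well), add compound at 5 concentrations, incubate 48 h, interpolate endpoints linearly. GI50 marks 50% less growth.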 Active and inactive are the calls of the source. No stated cut-off is given here; in the data, active = GI50 up to about 1.1 µM and inactive = higher.
# How the values were obtained:
# Assay in all cases: DTP human tumour cell line panel, 48 h
# [1] = tested on: A498
# [2] = tested on: MDA-MB-435
# [3] = tested on: HOP-92
# [4] = tested on: SK-MEL-2
# [5] = tested on: OVCAR-8
# [6] = tested on: KM12
# [7] = tested on: SNB-19
# [8] = tested on: SF-268
# [9] = tested on: RXF 393
# [10] = tested on: CAKI-1
# [11] = tested on: EKVX
# [12] = tested on: HT-29
# [13] = tested on: COLO 205
# [14] = tested on: SK-OV-3
# [15] = tested on: IGROV-1
# [16] = tested on: MDA-N
# [17] = tested on: T47D
# [18] = tested on: RPMI-8226
# [19] = tested on: NCI/ADR-RES
# [20] = tested on: SF-295
# [21] = tested on: HCT-15
# [22] = tested on: SK-MEL-28
# [23] = tested on: ACHN
# [24] = tested on: NCI-H226
# [25] = tested on: SK-MEL-5
# [26] = tested on: MDA-MB-231
# [27] = tested on: LOX IMVI
# [28] = tested on: HL-60
# [29] = tested on: NCI-H23
# [30] = tested on: SF-539
# [31] = tested on: MCF7
# [32] = tested on: HCT-116
# [33] = tested on: NCI-H522
# [34] = tested on: MOLT-4
# [35] = tested on: M14
# [36] = tested on: UACC-257
# [37] = tested on: DU-145
# [38] = tested on: Hs-578T
# [39] = tested on: TK-10
# [40] = tested on: SNB-75
# [41] = tested on: OVCAR-3
# [42] = tested on: A549
# [43] = tested on: UO-31
# [44] = tested on: SN12C
# [45] = tested on: HCC 2998
# [46] = tested on: NCI-H460
# [47] = tested on: PC-3
# [48] = tested on: K562
# [49] = tested on: UACC-62
# [50] = tested on: 786-0
# [51] = tested on: CCRF-CEM
# [52] = tested on: OVCAR-4
# [53] = tested on: Malme-3M
# [54] = tested on: HOP-62
# [55] = tested on: SR
# [56] = tested on: U-251
# [57] = tested on: SW-620
# [58] = tested on: OVCAR-5
structure (smiles),measurement,setting,value
Nc1nc(N)c2c(CCc3ccc(C(=O)N[C@@H](CCC(=O)O)C(=O)O)cc3)ccnc2n1,GI50,[1],0.541 µM (active)
same,GI50,[2],< 0.01 µM (active)
same,GI50,[3],1.21 µM (inactive)
same,GI50,[4],> 28.8 µM (inactive)
same,GI50,[5],< 0.01 µM (active)
same,GI50,[6],< 0.0283 µM (active)
same,GI50,[7],0.912 µM (active)
same,GI50,[8],0.0308 µM (active)
same,GI50,[9],0.0465 µM (active)
same,GI50,[10],< 0.0116 µM (active)
same,GI50,[11],> 100 µM (inactive)
same,GI50,[12],< 0.0294 µM (active)
same,GI50,[13],1.27 µM (inactive)
same,GI50,[14],0.0628 µM (active)
same,GI50,[15],0.029 µM (active)
same,GI50,[16],< 0.0129 µM (active)
same,GI50,[17],75.5 µM (inactive)
same,GI50,[18],< 0.0145 µM (active)
same,GI50,[19],< 0.0211 µM (active)
same,GI50,[20],0.148 µM (active)
same,GI50,[21],< 0.0232 µM
same,GI50,[22],> 88.9 µM (inactive)
same,GI50,[23],< 0.0236 µM (active)
same,GI50,[24],> 100 µM (inactive)
same,GI50,[25],0.0855 µM (active)
same,GI50,[26],> 100 µM (inactive)
same,GI50,[27],< 0.01 µM (active)
same,GI50,[28],< 0.01 µM (active)
same,GI50,[29],< 0.0308 µM (active)
same,GI50,[30],< 0.0145 µM (active)
same,GI50,[31],< 0.01 µM (active)
same,GI50,[32],< 0.01 µM (active)
same,GI50,[33],0.0855 µM (active)
same,GI50,[34],< 0.05 µM (active)
same,GI50,[35],< 0.0218 µM (active)
same,GI50,[36],0.257 µM (active)
same,GI50,[37],0.055 µM (active)
same,GI50,[38],52 µM (inactive)
same,GI50,[39],0.0363 µM (active)
same,GI50,[40],0.323 µM (active)
same,GI50,[41],0.0365 µM (active)
same,GI50,[42],0.0731 µM (active)
same,GI50,[43],0.0164 µM (active)
same,GI50,[44],< 0.0297 µM (active)
same,GI50,[45],< 0.01 µM (active)
same,GI50,[46],< 0.01 µM (active)
same,GI50,[47],17.7 µM (inactive)
same,GI50,[48],< 0.01 µM (active)
same,GI50,[49],< 0.0169 µM (active)
Cn1/c(=N\c2ccccc2[N+](=O)[O-])sc2ccccc21,GI50,[50],30.7 µM (inactive)
same,GI50,[51],> 100 µM (inactive)
same,GI50,[52],16.1 µM (inactive)
same,GI50,[1],54.8 µM (inactive)
same,GI50,[2],> 100 µM (inactive)
same,GI50,[3],14.7 µM (inactive)
same,GI50,[4],33.7 µM (inactive)
same,GI50,[5],49.9 µM (inactive)
same,GI50,[53],> 100 µM (inactive)
same,GI50,[6],1.6 µM (inactive)
same,GI50,[54],20.6 µM (inactive)
same,GI50,[7],36.1 µM (inactive)
same,GI50,[8],70.5 µM (inactive)
same,GI50,[9],30.1 µM (inactive)
same,GI50,[10],43.9 µM (inactive)
same,GI50,[11],8.61 µM (inactive)
same,GI50,[12],> 100 µM (inactive)
same,GI50,[13],> 100 µM (inactive)
same,GI50,[14],23 µM (inactive)
same,GI50,[15],5.4 µM (inactive)
same,GI50,[16],> 100 µM (inactive)
same,GI50,[17],3.95 µM (inactive)
same,GI50,[18],> 100 µM (inactive)
same,GI50,[19],95.9 µM (inactive)
same,GI50,[20],42.6 µM (inactive)
same,GI50,[21],2.61 µM
same,GI50,[22],89.7 µM (inactive)
same,GI50,[23],61.5 µM (inactive)
same,GI50,[24],34.9 µM (inactive)
same,GI50,[25],19.2 µM (inactive)
same,GI50,[26],6.1 µM (inactive)
same,GI50,[27],> 100 µM (inactive)
same,GI50,[28],> 100 µM (inactive)
same,GI50,[55],> 100 µM (inactive)
same,GI50,[29],26 µM (inactive)
same,GI50,[30],28.2 µM (inactive)
same,GI50,[32],72.8 µM (inactive)
same,GI50,[33],9.29 µM (inactive)
same,GI50,[34],> 100 µM (inactive)
same,GI50,[56],36.6 µM (inactive)
same,GI50,[36],29.9 µM (inactive)
same,GI50,[37],> 100 µM (inactive)
same,GI50,[38],16.5 µM (inactive)
same,GI50,[39],8.93 µM (inactive)
same,GI50,[40],18.4 µM (inactive)
same,GI50,[42],> 100 µM (inactive)
same,GI50,[43],> 100 µM (inactive)
same,GI50,[57],> 100 µM (inactive)
same,GI50,[44],84.1 µM (inactive)
same,GI50,[45],30.3 µM (inactive)
same,GI50,[58],22 µM (inactive)
same,GI50,[46],50.2 µM (inactive)
same,GI50,[47],66.1 µM (inactive)
same,GI50,[48],> 100 µM (inactive)
same,GI50,[49],30.5 µM (inactive)
